According to patent US11725173B2, “Highly efficient organoid culture device and system” (CELLARTGEN INC., priority 2018, dated 2023):

Experiments:
Format in all cases: cell-based
liver organoid [1] = assay: GSH and ROS distribution by monochlorobimane (mBCL) and dihydroethidium (DHE) assay in liver organoid; conditions: liver organoid of the THE-F group, APAP 2 to 50 mM
liver organoid [2] = assay: Toxicity test of liver organoid under drug concentration gradient (syringe pump and mixing channel); conditions: cultured 48 hours under gradient formed from 50 mM APAP medium and medium containing no APAP
CYP7A1 = CYP7A1 gene expression in liver organoid cultured alone or co-cultured with intestine organoid, bile acid in culture medium; conditions: compared with DMSO control
Protocol: (§1) Co-culture of the induced liver organoid and the adult stem cell-derived intestine organoid was performed, and the interaction between the two organoids was analyzed.

albumin gene = assay: Albumin gene expression in liver organoid cultured alone or co-cultured with intestine organoid, bile acid in culture medium; conditions: all conditions (liver organoid alone or co-cultured with intestine organoid); compared with DMSO control
Protocol: as §1

Compound | intracellular toxicity and damage of the liver organoid (liver organoid [1]) | fluorescence of DHE (reactive oxygen species formation) (liver organoid [1]; at higher concentrations) | fluorescence of mBCL (intracellular glutathione, GSH) (liver organoid [1]; at higher concentrations) | cytotoxicity in the liver organoid (liver organoid [2]) | expression level of CYP7A1 (CYP7A1; liver organoid co-cultured with intestine organoid) | expression level of CYP7A1 (CYP7A1; liver organoid cultured alone) | albumin gene expression (albumin gene)
CC(=O)Nc1ccc(O)cc1 [APAP, acetaminophen] | increased with an increasing concentration | higher | lower | increased as the drug concentration increased | – | – | –
C[C@H](CCC(=O)O)[C@H]1CC[C@H]2[C@@H]3[C@H](O)C[C@@H]4C[C@H](O)CC[C@]4(C)[C@H]3CC[C@]12C [CDCA, chenodeoxycholic acid] | – | – | – | – | a decrease | no difference | no difference in all conditions
